Measurements taken from the Kinase Knowledgebase extract (Sharma et al. 2016).

Target: PIK3CA (human) (UniProt P42336)
Assay: Assessment of PIK3CA Kinase Activity

PIK3CA (human), sequence (P42336 whole entry, looked up): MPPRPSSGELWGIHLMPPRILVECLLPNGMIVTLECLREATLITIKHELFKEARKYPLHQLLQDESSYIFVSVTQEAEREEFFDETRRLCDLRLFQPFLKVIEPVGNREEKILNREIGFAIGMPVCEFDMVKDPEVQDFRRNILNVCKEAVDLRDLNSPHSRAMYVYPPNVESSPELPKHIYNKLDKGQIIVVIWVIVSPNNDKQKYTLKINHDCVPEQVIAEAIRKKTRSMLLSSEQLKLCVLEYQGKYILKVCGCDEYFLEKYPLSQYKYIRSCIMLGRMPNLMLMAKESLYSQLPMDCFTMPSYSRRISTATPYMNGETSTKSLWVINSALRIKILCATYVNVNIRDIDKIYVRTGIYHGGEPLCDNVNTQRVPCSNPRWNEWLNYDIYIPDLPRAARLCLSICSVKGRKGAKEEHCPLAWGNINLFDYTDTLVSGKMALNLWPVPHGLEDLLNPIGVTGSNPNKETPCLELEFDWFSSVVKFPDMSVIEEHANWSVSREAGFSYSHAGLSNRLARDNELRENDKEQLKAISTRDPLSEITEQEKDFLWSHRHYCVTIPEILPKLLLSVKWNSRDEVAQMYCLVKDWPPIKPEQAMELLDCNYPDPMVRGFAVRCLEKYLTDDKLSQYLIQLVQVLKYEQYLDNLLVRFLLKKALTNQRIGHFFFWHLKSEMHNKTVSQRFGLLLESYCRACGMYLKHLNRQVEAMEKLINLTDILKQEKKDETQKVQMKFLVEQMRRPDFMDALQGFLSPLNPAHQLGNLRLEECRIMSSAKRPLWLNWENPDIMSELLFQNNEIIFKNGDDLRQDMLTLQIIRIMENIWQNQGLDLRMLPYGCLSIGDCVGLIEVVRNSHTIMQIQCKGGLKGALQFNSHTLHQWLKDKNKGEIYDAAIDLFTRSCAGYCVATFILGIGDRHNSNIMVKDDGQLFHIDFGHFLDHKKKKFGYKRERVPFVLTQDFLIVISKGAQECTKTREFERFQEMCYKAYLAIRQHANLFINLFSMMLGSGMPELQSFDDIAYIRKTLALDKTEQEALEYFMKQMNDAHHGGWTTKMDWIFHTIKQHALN

## Cn1cc(-c2nc(N)nc3c2-c2cc(NS(=O)(=O)c4ccccc4)c(Cl)cc2CC3)cn1
  IC50: 5 nM

## Cc1ccc([N+](=O)[O-])cc1S(=O)(=O)Nc1cc2c(cc1Cl)CCc1nc(N)nc(-c3ccncc3)c1-2
  IC50: 202 nM

## COc1ccc(-c2nc(N)nc3c2-c2cc(NS(=O)(=O)c4ccc(F)cc4F)c(Cl)cc2CC3)cc1
  IC50: 2 nM

## Nc1nc2c(c(-c3cccnc3)n1)-c1cc(S(=O)(=O)N3CCOCC3)c(Cl)cc1CC2
  IC50: 20 nM

## Nc1nc2c(c(-c3ccccc3F)n1)-c1cc(S(=O)(=O)N3CCOCC3)c(Cl)cc1CC2
  IC50: 13 nM

## CC(=O)Nc1cccc(-c2nc(N)nc3c2-c2cc(S(=O)(=O)N4CCOCC4)c(Cl)cc2CC3)c1
  IC50: 25 nM

## CS(=O)(=O)c1ccc(-c2nc(N)nc3c2-c2cc(NS(=O)(=O)c4ccc(F)cc4F)c(Cl)cc2CC3)cc1
  IC50: 2.5 nM

## Nc1nc2c(c(-c3ccc(F)cc3)n1)-c1cc(S(=O)(=O)N3CCOCC3)c(Cl)cc1CC2
  IC50: 6.3 nM

## COc1cccc(-c2nc(N)nc3c2-c2cc(NS(=O)(=O)c4ccc(F)cc4F)c(Cl)cc2CC3)c1
  IC50: 5 nM

## CNC(=O)c1ccc(-c2nc(N)nc3c2-c2cc(S(=O)(=O)N4CCOCC4)c(Cl)cc2CC3)cc1
  IC50: 7.9 nM

## Nc1nc2c(c(-c3ccccc3)n1)-c1cc(NS(=O)(=O)c3ccccc3)c(Cl)cc1CC2
  IC50: 13 nM

## Nc1nc2c(c(-c3cccc(S(=O)(=O)N4CCOCC4)c3)n1)-c1cc(NS(=O)(=O)c3ccc(F)cc3F)c(Cl)cc1CC2
  IC50: 7.9 nM

## CNC(=O)c1cccc(-c2nc(N)nc3c2-c2cc(NS(=O)(=O)c4ccc(F)cc4F)c(Cl)cc2CC3)c1
  IC50: 4 nM

## Nc1nc2c(c(-c3ccc(S(=O)(=O)N4CCOCC4)cc3)n1)-c1cc(NS(=O)(=O)c3ccc(F)cc3F)c(Cl)cc1CC2
  IC50: 2.5 nM

## CC(=O)Nc1ccc(-c2nc(N)nc3c2-c2cc(S(=O)(=O)N4CCOCC4)c(Cl)cc2CC3)cc1
  IC50: 3.2 nM

## Nc1nc2c(c(-c3ccccc3)n1)-c1cc(NS(=O)(=O)c3ccoc3)c(Cl)cc1CC2
  IC50: 16 nM

## Nc1nc2c(c(-c3ccncc3)n1)-c1cc(NS(=O)(=O)c3cccc(Cl)c3)c(Cl)cc1CC2
  IC50: 2.5 nM

## Nc1nc2c(c(=O)[nH]1)-c1ccc(Cl)cc1CC2
  IC50: 5010 nM

## Nc1nc2c(c(-c3ccncc3)n1)-c1cc(NS(=O)(=O)c3ccc4ccccc4c3)c(Cl)cc1CC2
  IC50: 405 nM

## Nc1nc2c(c(-c3ccncc3)n1)-c1cc(NS(=O)(=O)c3ccccc3)c(Cl)cc1CC2
  IC50: 6.3 nM

## CC(C)S(=O)(=O)Nc1cc2c(cc1Cl)CCc1nc(N)nc(-c3ccccc3)c1-2
  IC50: 25 nM

## CN(C)S(=O)(=O)c1cccc(-c2nc(N)nc3c2-c2cc(NS(=O)(=O)c4ccc(F)cc4F)c(Cl)cc2CC3)c1
  IC50: 3.2 nM

## Nc1cccc(-c2nc(N)nc3c2-c2cc(S(=O)(=O)N4CCOCC4)c(Cl)cc2CC3)c1
  IC50: 6.3 nM

## CC(C)S(=O)(=O)Nc1cc2c(cc1Cl)CCc1nc(N)nc(-c3ccc(F)cc3)c1-2
  IC50: 32 nM

## Nc1nc2c(c(-c3ccncc3)n1)-c1cc(NS(=O)(=O)c3ccc(F)cc3F)c(Cl)cc1CC2
  IC50: 1 nM

## Nc1nc2c(c(-c3ccccc3)n1)-c1cc(NC(=O)c3ccc(F)cc3F)c(Cl)cc1CC2
  IC50: 1580 nM

## Nc1nc2c(c(-c3ccc(F)cc3)n1)-c1cc(S(N)(=O)=O)c(Cl)cc1CC2
  IC50: 1.6 nM

## CC(=O)Nc1ccc(-c2nc(N)nc3c2-c2cc(NS(=O)(=O)c4ccc(F)cc4F)c(Cl)cc2CC3)cc1
  IC50: 2.5 nM

## Nc1nc2c(c(-c3ccc(F)cc3)n1)-c1cc(NS(=O)(=O)c3ccccc3)c(Cl)cc1CC2
  IC50: 13 nM

## Nc1nc2c(c(-c3cccnc3)n1)-c1cc(NS(=O)(=O)c3ccc(F)cc3F)c(Cl)cc1CC2
  IC50: 20 nM

## Nc1nc2c(c(-c3ccccc3)n1)-c1cc(NS(=O)(=O)c3ccc(F)cc3F)c(Cl)cc1CC2
  IC50: 4 nM

## CN(C)S(=O)(=O)c1ccc(-c2nc(N)nc3c2-c2cc(NS(=O)(=O)c4ccc(F)cc4F)c(Cl)cc2CC3)cc1
  IC50: 2.5 nM

## NC(=O)c1ccc(-c2nc(N)nc3c2-c2cc(NS(=O)(=O)c4ccc(F)cc4F)c(Cl)cc2CC3)cc1
  IC50: 4 nM

## Nc1nc2c(c(-c3ccncc3)n1)-c1cc(S(=O)(=O)N3CCOCC3)c(Cl)cc1CC2
  IC50: 10 nM

## N#Cc1cccc(S(=O)(=O)Nc2cc3c(cc2Cl)CCc2nc(N)nc(-c4ccncc4)c2-3)c1
  IC50: 313 nM

## Cc1ccc(-c2nc(N)nc3c2-c2cc(S(=O)(=O)N4CCOCC4)c(Cl)cc2CC3)cc1
  IC50: 4 nM

## Nc1nc2c(c(-c3cccc(F)c3)n1)-c1cc(NS(=O)(=O)c3ccc(F)cc3F)c(Cl)cc1CC2
  IC50: 4 nM

## CC(=O)Nc1cccc(-c2nc(N)nc3c2-c2cc(NS(=O)(=O)c4ccc(F)cc4F)c(Cl)cc2CC3)c1
  IC50: 16 nM

## NC(=O)c1cccc(-c2nc(N)nc3c2-c2cc(NS(=O)(=O)c4ccc(F)cc4F)c(Cl)cc2CC3)c1
  IC50: 2 nM

## N#Cc1ccc(S(=O)(=O)Nc2cc3c(cc2Cl)CCc2nc(N)nc(-c4ccncc4)c2-3)cc1
  IC50: 1.6 nM

## CS(=O)(=O)c1cccc(-c2nc(N)nc3c2-c2cc(NS(=O)(=O)c4ccc(F)cc4F)c(Cl)cc2CC3)c1
  IC50: 1.3 nM

## CNC(=O)c1ccc(-c2nc(N)nc3c2-c2cc(NS(=O)(=O)c4ccc(F)cc4F)c(Cl)cc2CC3)cc1
  IC50: 1.6 nM

## Cn1cc(-c2nc(N)nc3c2-c2cc(NS(=O)(=O)c4ccc(F)cc4F)c(Cl)cc2CC3)cn1
  IC50: 6.3 nM

## Nc1nc2c(c(-c3ccc(F)cc3)n1)-c1cc(NS(=O)(=O)c3ccc(F)cc3F)c(Cl)cc1CC2
  IC50: 2.5 nM

## Nc1nc2c(c(-c3ccccc3)n1)-c1cc(S(=O)(=O)N3CCOCC3)c(Cl)cc1CC2
  IC50: 3.2 nM

## Nc1nc2c(c(-c3ccncc3)n1)-c1cc(NS(=O)(=O)c3cccs3)c(Cl)cc1CC2
  IC50: 3.2 nM
